# What was measured:
# Experiment in all cases: chromogenic hydrolysis of QAR, […] nm, initial rates
# Assay type in all cases: biochemical
# matriptase [1] = target: T1, matriptase (Homo sapiens, UniProt Q9Y5Y6); conditions: 1 mM QAR, pH 7.6, 120 mM NaCl, 0.05% Tween 20, 100 ug/ml heparin, 37 C, matriptase 2.4 nM
# T1 construct: gene ST14
# T1 sequence (Q9Y5Y6 615-855 limits assumed): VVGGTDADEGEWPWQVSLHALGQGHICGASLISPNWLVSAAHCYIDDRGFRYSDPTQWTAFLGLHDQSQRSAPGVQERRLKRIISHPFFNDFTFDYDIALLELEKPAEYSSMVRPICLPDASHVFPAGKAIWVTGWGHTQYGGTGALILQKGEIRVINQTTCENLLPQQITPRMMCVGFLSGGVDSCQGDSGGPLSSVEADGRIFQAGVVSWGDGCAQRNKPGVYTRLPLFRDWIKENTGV
# [2] = target: T2, β-tryptase; human lung (β) tryptase; conditions: 1 mM QAR, pH 7.6, 120 mM NaCl, 0.05% Tween 20, 100 ug/ml heparin, 37 C, tryptase 0.70 nM
# T2 construct: gene TPSAB1; native soluble tetramer from human lung (EMD-Millipore)
# [3] = target: T3, HAT; airway trypsin-like protease (Homo sapiens, UniProt O60235); conditions: 1 mM QAR, pH 7.6, 120 mM NaCl, 0.05% Tween 20, 100 ug/ml heparin, 37 C, HAT 0.72 nM
# T3 construct: gene TMPRSS11D; recombinant soluble catalytic domain (R&D Systems)
# T3 sequence (O60235 187-418 limits assumed): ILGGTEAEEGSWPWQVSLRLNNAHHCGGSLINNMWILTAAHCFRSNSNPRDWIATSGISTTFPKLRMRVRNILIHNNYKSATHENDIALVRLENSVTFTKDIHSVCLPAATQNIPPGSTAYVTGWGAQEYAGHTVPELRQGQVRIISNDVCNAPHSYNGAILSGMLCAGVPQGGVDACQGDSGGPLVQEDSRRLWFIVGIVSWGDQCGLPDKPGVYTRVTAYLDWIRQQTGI
# matriptase [4] = target: T1, matriptase; conditions: 1 mM QAR, pH 7.6, 120 mM NaCl, 0.05% Tween 20, 100 ug/ml heparin, 37 C; matriptase 2.4 nM; unreliable (beyond tested range 0.24-1200 uM)
# [5] = target: T3, HAT; airway trypsin-like protease; conditions: 1 mM QAR, pH 7.6, 120 mM NaCl, 0.05% Tween 20, 100 ug/ml heparin, 37 C; HAT 0.72 nM; unreliable (beyond tested range 1.6-20 uM)
# prostasin = target: T4, prostasin (Homo sapiens, UniProt Q16651); conditions: 1 mM QAR, pH 7.6, 120 mM NaCl, 0.05% Tween 20, 100 ug/ml heparin, 37 C, prostasin 80 nM
# T4 construct: gene PRSS8; recombinant soluble catalytic domain (R&D Systems)
# T4 sequence (Q16651 33-322 limits assumed): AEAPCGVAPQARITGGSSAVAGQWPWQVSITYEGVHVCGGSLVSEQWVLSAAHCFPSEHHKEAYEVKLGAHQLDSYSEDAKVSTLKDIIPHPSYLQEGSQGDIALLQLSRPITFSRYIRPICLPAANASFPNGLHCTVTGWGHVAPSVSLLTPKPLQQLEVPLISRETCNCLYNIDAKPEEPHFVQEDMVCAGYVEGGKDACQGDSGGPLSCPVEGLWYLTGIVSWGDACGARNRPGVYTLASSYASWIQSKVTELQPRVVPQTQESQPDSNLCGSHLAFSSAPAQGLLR
structure (smiles),measurement,setting,value
"N=C(N)c1ccc2[nH]c(Cc3nc4ccc(C(=N)N)cc4[nH]3)nc2c1 [BABIM, bis(5-amidino-2-benzimidazolyl)methane]",Matriptase,matriptase [1],"0.98 [0.87, 1.11] [inhibitor]/[enzyme] ratio (dimensionless)"
same,Tryptase,[2],"108 [78, 149] [inhibitor]/[enzyme] ratio (dimensionless)"
same,HAT,[3]; brackets 95% CI,"71 [48, 105] [inhibitor]/[enzyme] ratio (dimensionless)"
N=C(N)c1ccccc1 [benzamidine],Matriptase,matriptase [4],"1.1e6 [9.4e5, 1.2e6] [inhibitor]/[enzyme] ratio (dimensionless)"
same,Tryptase,[2],"4.7e4 [3.4e4, 6.5e4] [inhibitor]/[enzyme] ratio (dimensionless)"
same,HAT,[5],"1.4e6 [2.0e5, 9.6e6] [inhibitor]/[enzyme] ratio (dimensionless)"
CN(C)C(=O)COC(=O)Cc1ccc(OC(=O)c2ccc(NC(=N)N)cc2)cc1 [camostat],Matriptase,matriptase [1]; covalent (acyl intermediate),"96 [80, 115] [inhibitor]/[enzyme] ratio (dimensionless)"
same,Tryptase,[2]; covalent (acyl intermediate),"5.2 [3.7, 7.2] [inhibitor]/[enzyme] ratio (dimensionless)"
same,HAT,[3]; covalent (acyl intermediate),"20 [16, 24] [inhibitor]/[enzyme] ratio (dimensionless)"
same,Prostasin,prostasin; covalent (acyl intermediate),"14 [7.7, 25] [inhibitor]/[enzyme] ratio (dimensionless)"
N=C(N)Nc1ccc(C(=O)Oc2ccc3cc(C(=N)N)ccc3c2)cc1 [nafamostat],Tryptase,"[2]; covalent, suicide substrate, near-stoichiometric","0.44 [0.29, 0.67] [inhibitor]/[enzyme] ratio (dimensionless)"
same,HAT,[3],"191 [154, 239] [inhibitor]/[enzyme] ratio (dimensionless)"
same,Prostasin,prostasin,"11 [5.6, 20] [inhibitor]/[enzyme] ratio (dimensionless)"
